According to ChEMBL document CHEMBL3108681, “Inhibitors of Tropomyosin-Receptor Kinases (Trk's): Potential Pain Therapy and More” (ACS Med Chem Lett, 2014):

Biological target: High affinity nerve growth factor receptor (Homo sapiens, UniProt P04629)
Test: Inhibition of TrkA (unknown origin) using fluorescently labeled peptide substrate after 3 hrs

Chain of High affinity nerve growth factor receptor (P04629 whole entry): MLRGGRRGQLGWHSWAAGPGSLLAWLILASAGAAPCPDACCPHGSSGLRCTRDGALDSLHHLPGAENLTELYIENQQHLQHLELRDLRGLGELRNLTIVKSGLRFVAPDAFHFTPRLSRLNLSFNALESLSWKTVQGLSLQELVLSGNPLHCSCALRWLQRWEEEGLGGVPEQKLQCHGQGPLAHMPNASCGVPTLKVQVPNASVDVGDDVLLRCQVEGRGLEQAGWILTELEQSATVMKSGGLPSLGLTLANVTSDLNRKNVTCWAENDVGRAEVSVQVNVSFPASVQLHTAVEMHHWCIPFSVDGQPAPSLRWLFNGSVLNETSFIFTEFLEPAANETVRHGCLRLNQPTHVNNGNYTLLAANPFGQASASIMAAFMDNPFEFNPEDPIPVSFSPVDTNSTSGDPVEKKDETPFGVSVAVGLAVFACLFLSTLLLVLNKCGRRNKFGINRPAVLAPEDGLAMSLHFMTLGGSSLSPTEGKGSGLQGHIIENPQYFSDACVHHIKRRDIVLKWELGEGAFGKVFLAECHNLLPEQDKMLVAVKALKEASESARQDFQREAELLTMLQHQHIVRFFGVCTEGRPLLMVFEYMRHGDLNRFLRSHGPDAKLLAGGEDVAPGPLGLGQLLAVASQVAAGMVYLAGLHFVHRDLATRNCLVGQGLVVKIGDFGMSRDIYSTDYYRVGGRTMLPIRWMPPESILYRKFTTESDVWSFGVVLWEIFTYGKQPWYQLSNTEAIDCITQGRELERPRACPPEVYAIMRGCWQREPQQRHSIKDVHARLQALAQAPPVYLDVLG

EC50 [nM]	Structure (SMILES)
1010	CC1(C)CN(c2ccc(OC(F)(F)F)cc2)C(=O)N1Cc1cccc(-c2nccs2)c1
6.5	CC(C)N(Cc1c[nH]c2ncccc12)C(=O)Nc1ccc(SC(F)(F)F)cc1
11.3	CC(C)N(Cc1c[nH]c2ncccc12)C(=O)Nc1ccc(OC(F)(F)F)cc1
